Assay results taken from patent US10231979B2, “Modulation of inflammation using progesterone metabolites” (Indiana University Research and Technology Corporation, priority 2015, dated 2019).
“And” between values parts separate entries of the source, which are not always exact repeats. Identical values can stand only once. Like-named read-outs stand apart in the source and are kept apart here.

How the values were obtained:
[1] = system: uterine horns from wild-type (WT) C57BL/6J female mice; experiment: Spontaneous uterine contractility, isolated uterine horns in tissue organ bath; details: for Spontaneous contractile force compared with the vehicle control (in words) / Spontaneous uterine contraction frequency compared to vehicle control (in words) / Contractile Frequency/10 min (% of baseline), Drug / Contractile Force (% of baseline), Drug: maximal treatment dose; for Contractile Frequency/10 min (% of baseline), Drug / Contractile Force (% of baseline), Drug: spontaneous contractility; for Contractile Force (% of baseline), Drug: AUC as % of baseline AUC; for IC50: spontaneous, dose-response 10^-9 to 10^-6 mol/L
Method: (§1) FIGS. 2A & 2B are representative contraction tracings of uterine horns from wild-type (WT) C57BL/6J female mice. FIG. 2A: Uterine horns were isolated and suspended in a tissue organ bath at 0.5 g of tension. Once equilibrated, selected progestin treatments were added in successively increasing concentrations from 10^−9 to 10^−6 mol/L in 20-minute intervals to assess effect on spontaneous contractile activity (progesterone treatment, bottom panel). The contralateral horn from each mouse was treated with a matching ethanol vehicle (top panel). All contraction responses were measured and reported as the area under the contraction curve (AUC), normalized to the AUC of the spontaneous contraction pattern that preceded treatment. FIG. 2B: Treatment effect on oxytocin-induced contractility was assessed by exposing horns to selected progestin treatments (10^−6 mol/L), followed by increasing doses of oxytocin (Oxt) (1, 10, 50, and 100 nmol/L) in 10-minute intervals (bottom panel). The contralateral horn from each mouse was treated with a matching ethanol vehicle (top panel). Contraction responses were measured and reported as described above.
(§2) All progestins were solubilized in ethanol and then diluted in phosphate-buffered saline to the desired molar concentration. […] The concentration of ethanol decreased parallel to the progestin dose in order to minimize the effect of the solvent on uterine contractility.
(§3) Virgin nonpregnant wild-type C57BL/6J female mice (Jackson Labs, Bar Harbor, Me.) were obtained at 10 to 12 weeks of age and fed a standard diet. Mice were euthanized by an IACUC-approved protocol, and each of the 2 uterine horns were removed. A 1 cm×0.5 cm segment of the uterine horn was suspended using 4-0 silk suture between a stainless steel wire hook connected to a Radnoti force displacement transducer (Radnoti LLC, Monrovia, Calif.) and a glass hook inside an organ bath that served as an anchor. The bath was filled with modified Krebs buffer (118 mmol/L NaCl, […], 1.2 mmol/L MgSO4, 1.2 mmol/L KH2PO4, 2.5 mmol/L CaCl2, 25 mmol/L NaHCO3, and 11 mmol/L glucose, pH 7.4), maintained at 37° C., and constantly bubbled with a premixed gas consisting of 20% O2, 5% CO2, and balance N2. Uterine horns were equilibrated at 0.5 g of tension for approximately 30 minutes until a spontaneous contraction pattern was established.
A total of 60 mice were utilized to assess the effect of the selected treatments on uterine contractility, 30 in the spontaneous contraction group and 30 in the oxytocin-induced group. Six mice were in each progestin treatment group during both spontaneous and oxytocin-induced contractility arms of the study. To determine the nongenomic (acute) effect of the progestin treatments on spontaneous uterine contractility, a segment of uterine horn from each mouse was exposed to a single progestin (progesterone, 17-OHPC, 2α-OHP, 6β-OHP, or 16αOHP), while a segment of the contralateral horn was exposed to a matching dose of ethanol vehicle. After a spontaneous contraction pattern was achieved, the progestin treatment was added to the tissue organ bath in successively increasing concentrations from 10^−9 to 10^−6 mol/L in 20-minute intervals. At the end of the treatments, the tissue was washed in modified Krebs buffer and then exposed to KCl (60 mmol/L) to elicit a tetanic response and confirm tissue viability.
Uterine contraction responses were recorded using LabChart Pro (ADInstruments, Colorado Springs, Colo.) software as the force generated with time (g×min). Baseline uterine contractility was calculated as the area under the curve (AUC) for a 10-minute period of spontaneous contractions. The AUC of the uterine contractile response to each treatment (progestin or oxytocin) was determined and expressed as a percentage of the baseline AUC observed during spontaneous contraction. […]

[2] = system: uterine horns from wild-type (WT) C57BL/6J female mice; experiment: Oxytocin-induced uterine contractility after progestin pretreatment, isolated uterine horns in tissue organ bath; details: for Oxytocin-induced contractile force compared to vehicle control (in words) / Oxytocin-induced contraction frequency compared to control (in words) / Contractile Force (% of baseline), Drug / Contractile Frequency/10 min (% of baseline), Drug: maximal oxytocin dose (100 nmol/L); for EC50: oxytocin-induced dose-response (1-100 nmol/L oxytocin) after progestin pretreatment 10^-6 mol/L; for Contractile Force (% of baseline), Drug / Contractile Frequency/10 min (% of baseline), Drug: oxytocin-induced, progestin pretreatment 10^-6 mol/L
Method: as §1, §2, §3
To determine the nongenomic effect of progestin treatments on oxytocin-induced uterine contractility, the uterine horns were pretreated with a single progestin at 10^−6 mol/L for 10 minutes after a spontaneous contractile pattern was established. The contralateral horn from the same mouse was treated with ethanol vehicle at a matching concentration. The uterine horns were subsequently exposed to increasing concentrations of oxytocin (1, 10, 50, and 100 nmol/L) in 10-minute intervals. At the end of the oxytocin treatments, the tissue was washed and then exposed to KCl (60 mmol/L) to elicit a tetanic response and confirm tissue viability.
Uterine contraction responses were recorded using LabChart Pro (ADInstruments, Colorado Springs, Colo.) software as the force generated with time (g×min). Baseline uterine contractility was calculated as the area under the curve (AUC) for a 10-minute period of spontaneous contractions. The AUC of the uterine contractile response to each treatment (progestin or oxytocin) was determined and expressed as a percentage of the baseline AUC observed during spontaneous contraction. […] To account for repeated measurements for individual muscle strips at increasing treatment doses, a repeated measures 2-way analysis of variance model was used to compare the dose-response curves. Each dose-response curve was fit by nonlinear regression and compared using an extra sum of squares F test. The mean max-fit response was compared between each progestin and vehicle control to determine maximum treatment efficacy. […]

[3] = system: primary uterine smooth muscle cells (UtSMC); experiment: IL-6 production in UtSMC stimulated with LPS; type: cell-based; details: for IL-6 / IL-6, % of positive control: UtSMC pre-treated, then LPS; for IL-6: LPS positive control 121.7 pg/mL; for IL-6, % of positive control: relative to DMSO+LPS positive control
Method: In this Example, the effect of progesterone metabolites 16αOHP and 6β-OHP on inflammation in primary uterine smooth muscle cells (UtSMC) was analyzed.
UtSMC were cultured in the presence of DMSO and one of the following: (1) progesterone; (2) […]; (3) 6β-OHP; and (4) 16αOHP. Lipopolysaccharide (LPS) was then added to the culture to stimulate an immune inflammatory reaction. Experiments were performed in triplicate.

[4] = system: primary uterine smooth muscle cells (UtSMC); experiment: IL-6 production in UtSMC stimulated with TNF-α; type: cell-based
Excerpt: FIGS. 5A & 5B are graphs depicting the effect of progesterone metabolites 16αOHP and 6β-OHP on inflammation in primary uterine smooth muscle cells (UtSMC).

THP-1 monocyte cells = experiment: Flow cytometry of monocyte-derived macrophage population (PMA differentiation); type: cell-based; details: THP-1 pre-treated 24 hours, then PMA
Method: FIGS. 6A-6C depict flow cytometry of a monocyte-derived macrophage population pre-treated with progesterone metabolites. THP-1 monocyte cells were pre-treated with progesterone metabolites 16αOHP and 6β-OHP for 24 hours, then stimulated to differentiate to macrophages by exposure to PMA.
THP-1 monocyte cells were pre-treated with progesterone metabolites 16αOHP and 6β-OHP for 24 hours, then stimulated to differentiate to macrophages by exposure to phorbol 12-myristate 13-acetate (PMA).

THP-1 monocytes = experiment: IL-6 production in THP-1 monocytes stimulated with LPS; type: cell-based; details: THP-1 monocytes pretreated, then LPS; versus positive control
Method: FIG. 9 is a graph depicting the effect of progesterone and progesterone metabolites (16αOHP and 6β-OHP) on inflammation in THP-1 monocytes stimulated with LPS.
In this Example, the effect of progesterone and progesterone metabolites (16αOHP and 6β-OHP) on inflammation in THP-1 monocytes stimulated with LPS was analyzed.

[5] = system: monocyte-derived macrophage populations; experiment: Macrophage cell surface marker expression of monocyte-derived macrophages; type: cell-based; details: relative to DMSO treated control
Excerpt: FIG. 7 is a graph depicting characterization of monocyte-derived macrophage populations after pre-treatment with progesterone and progesterone metabolites. Expression of macrophage cell surface markers is illustrated relative to DMSO treated control.
In this Example, monocyte-derived macrophage populations after pre-treatment with progesterone and progesterone metabolites were characterized.
Expression of macrophage cell surface markers is illustrated relative to DMSO treated control (see FIG. 7).

NF-κB pathway = NF-κB pathway activation in THP-1 monocytes stimulated with LPS (imaging flow cytometry); type: cell-based; details: THP-1 monocytes pre-treated, then LPS
Method: FIGS. 8A-8B depicts the summary of NF-κB pathway activation in THP-1 monocytes stimulated with LPS after pre-treatment with progesterone and progesterone metabolites. […] In this Example, the effect of progesterone metabolites on the LPS-induced inflammatory response in monocytes was analyzed. Particularly, NF-κB pathway activation in THP-1 monocytes stimulated with LPS after pre-treatment with progesterone and progesterone metabolites was analyzed.

[6] = read-out: Contractile Force IC50
[7] = read-out: Contractile Frequency IC50
[8] = read-out: Contractile Force EC50
[9] = read-out: Contractile Frequency EC50
[10] = Mus musculus, read-out: Contractile Force IC50
[11] = Mus musculus, read-out: Contractile Frequency IC50
[12] = Mus musculus, read-out: Contractile Force EC50
[13] = Mus musculus, read-out: Contractile Frequency EC50

SMILES	IC50 [1, 6] [nM]	IC50 [1, 7] [nM]	EC50 [2, 8] [nM]	EC50 [2, 9] [nM]	IC50 [1, 10] [nM]	IC50 [1, 11] [nM]	EC50 [2, 12] [nM]	EC50 [2, 13] [nM]	Spontaneous contractile force compared with the vehicle control (in words) [1]	Spontaneous uterine contraction frequency compared to vehicle control (in words) [1]	Contractile Frequency/10 min (% of baseline), Drug [1]	Contractile Force (% of baseline), Drug [1]	Oxytocin-induced contractile force compared to vehicle control (in words) [2]	Oxytocin-induced contraction frequency compared to control (in words) [2]	Contractile Force (% of baseline), Drug [2]	Contractile Frequency/10 min (% of baseline), Drug [2]	IL-6 [3] [pg/mL]	IL-6, % of positive control [3] [%]	other results
CC(=O)[C@H]1CC[C@H]2[C@@H]3CCC4=CC(=O)[C@H](O)C[C@]4(C)[C@H]3CC[C@]12C [2α-OHP, 4-pregnen-2α-ol-3,20-dione]	0.32	0.55	68.2	646					No significant difference	not significantly decreased	53.7% of baseline	37.9% of baseline	no differences	not	329.5% of baseline	168.9% of baseline			
CC(=O)[C@H]1[C@H](O)C[C@H]2[C@@H]3CCC4=CC(=O)CC[C@]4(C)[C@H]3CC[C@@]21C [16α-OHP, 4-pregnen-16α-ol-3,20-dione]	0.77	0.74	142	8.46					No significant difference	not significantly decreased	57% of baseline	37.2% of baseline	no differences	decreased significantly	301.6% of baseline	216.9% of baseline	98.7	83	Effect on oxytocin-induced uterine contractility (in words) [2]: decreased; Contractile Frequency/10 min (% of baseline), Drug ([2]; listed as 16αOHP): 217 % of baseline; IL-6 production (in words) ([3]; UtSMC stimulated with LPS): reduced IL-6 production; IL-6 production (in words) [4]: decreased IL-6 production; Macrophage population/phenotype compared to DMSO treated control (in words) (THP-1 monocyte cells): decrease in the macrophage population/phenotype; Inflammatory response (IL-6 production) (in words) (THP-1 monocytes): significantly decreased IL-6 production
C[C@]12CC[C@@H]3c4ccc(O)cc4CC[C@H]3[C@@H]1CC[C@@H]2O [E2, reference compound]																	126	103	

Second part, led by results:

IC50 [1, 6] [nM]	IC50 [1, 7] [nM]	EC50 [2, 8] [nM]	EC50 [2, 9] [nM]	IC50 [1, 10] [nM]	IC50 [1, 11] [nM]	EC50 [2, 12] [nM]	EC50 [2, 13] [nM]	SMILES	Spontaneous contractile force compared with the vehicle control (in words) [1]	Spontaneous uterine contraction frequency compared to vehicle control (in words) [1]	Contractile Frequency/10 min (% of baseline), Drug [1]	Contractile Force (% of baseline), Drug [1]	Oxytocin-induced contractile force compared to vehicle control (in words) [2]	Oxytocin-induced contraction frequency compared to control (in words) [2]	Contractile Force (% of baseline), Drug [2]	Contractile Frequency/10 min (% of baseline), Drug [2]	IL-6 [3] [pg/mL]	IL-6, % of positive control [3] [%]	other results
				0.78	0.31	8.43	3.26	CCCCCC(=O)O[C@]1(C(C)=O)CC[C@H]2[C@@H]3CCC4=CC(=O)CC[C@]4(C)[C@H]3CC[C@@]21C [17-OHPC, 4-pregnen-17-ol-3,20-dione caproate, reference compound]	No significant difference	not significantly decreased	57.9% of baseline	50.4% of baseline		decreased significantly	218.4 % of baseline	130 % of baseline and 130.2% of baseline			
				0.31	6.58	9.76	11.3	CC(=O)[C@H]1CC[C@H]2[C@@H]3CCC4=CC(=O)CC[C@]4(C)[C@H]3CC[C@]12C [Progesterone]		not significantly decreased	48% of baseline	43.9% of baseline		decreased significantly	266.8% of baseline	141% of baseline	100.3	83	Contractile Force (% of baseline), Drug ([1]; listed as progesterone): 43.9 % of baseline; Contractile Force (% of baseline), Drug ([2]; listed as progesterone): 266.8 % of baseline; Contractile Frequency/10 min (% of baseline), Drug ([2]; listed as progesterone): 141 % of baseline; Expression of cell surface markers involved in immune response (CD14, TLR4, and HLA-DR) (in words) [5]: decreased expression; Median similarity score (NF-κB migration into the nucleus) (in words) (NF-κB pathway): did not affect the median similarity score
